One test deals with C. albicans DSY1024. Kind of test: Candida growth inhibition (XTT), C. albicans DSY1024. Format: cell-based. The following applies: C. albicans DSY1024 (Table 4). On the procedure: (§1) There are numerous assays that can be used to measure the inhibition of growth of a fungus such as Candida. In one example, cultures of Candida, e.g., C. albicans strains DSY1024 and SC5314, C. krusei ATCC 6258, and C. glabrata ATCC 90030, are subcultured from cryopreserved stocks onto Sabouraud's dextrose agar plates. Blastoconidia are suspended into RPMI-MOPS medium and inoculated (500 cfu/well) into 96-well plates containing test compounds in a final volume of 100 μL/well. After 22 hours at 35° C., 25 μL of XTT (2,3-bis(2-methoxy-4-nitro-5-sulfophenyl)-5-(phenylamino)carbonyl]-2H-tetrazolium hydroxide), (100 μg/mL) with PMS (phenazine methyl sulfate, 5 μM) are added to each well, followed by 2 hours of shaking. Growth is assessed spectrophotometrically by measuring the appearance of soluble formazan stain at 450 nm using an Emax microplate reader. Validity of the assay is confirmed by determination of the C. albicans minimum inhibitory concentration (MIC) for known antifungal agents such as amphotericin B, 5-flucytosine, fluconazole, nikkomycin Z, and polyoxin D.
LP416E8 (AC-05081-T4-3) was an organic extract of a manipulated plant cell culture from A. corsicum.
(Tetrazolium assays rely on reduction of a dye to a coloured formazan, in cell work by metabolically active cells.)

The test system of the next test is Candida. The test can be described thus: Anti-Candida activity by backbone length. It counts as cell-based. Conditions: X=7. The text has this: The variable X denotes the length of a saturated carbon backbone. The antifungal activity of the claimed compounds changes in part based on the length of this backbone. […] Preferably, X is an integer between 5 and 7, inclusive, although longer carbon chains (X=8-10) may preserve or increase antifungal activity.

In another test the test system is C. albicans SC5314. The test can be described thus: Candida growth inhibition (XTT), C. albicans SC5314. Conditions: for IC50 / MIC: C. albicans SC5314 (Table 4). Format: cell-based. The method, then: as §1
The test system of the next test is T. rubrum. Kind of test: Dermatophyte growth inhibition (microdilution, NCCLS M27A), T. rubrum. Format: cell-based, Trichophyton rubrum. On the procedure: (§2) The compounds of the invention are also effective against dermatophytes. Testing was performed using a microdilution method based on the NCCLS M27A antifungal protocol. Compounds to be tested were prepared in DMSO and diluted to the appropriate concentration in RPMI 1640 medium (the dermatophyte growth medium). An inoculum of each test organism was prepared from oatmeal agar plates to contain 0.5-2.5×10^3 conidia/mL. One hundred microliters of the inoculum was added to each well of a 96-well microtiter plate containing 4 μL of a test compound and 96 μL of RPMI 1640. Terbinafine (sold under the brand name Lamisil®) was used as a positive control.
In general terms: Broth dilution looks for growth in wells or tubes with falling amounts of substance.

The subject of the next test is T. mentagrophytes. The test can be described thus: Dermatophyte growth inhibition (microdilution, NCCLS M27A), T. mentagrophytes. Format: cell-based. On the procedure: as §2
Another test relates to T. tonsurans. The test can be described thus: Dermatophyte growth inhibition (microdilution, NCCLS M27A), T. tonsurans. It counts as cell-based. On the procedure: as §2
Another test concerns M. canis. Kind of test: Dermatophyte growth inhibition (microdilution, NCCLS M27A), M. canis. Format: cell-based, Microsporum canis. On the procedure:
as §2

The results in this text go back to patent US6541506B1, “Antifungal enediynes” (Phytera Incorporated, priority 1999, dated 2003).

In brackets after ≈: the same amount, converted by molar mass.

The term IC50 denotes the concentration at which inhibition is half-maximal. A lower IC50 goes with greater potency. For orientation: MIC means the lowest concentration found to suppress growth. A high value points to a less susceptible organism.

Consider `O=C(O)CCCCCCC/C=C\C#CC#Cc1ccco1` [Compound 5], for which, in the test on C. albicans DSY1024, the IC50 came out at 0.0039 µg/mL (≈ 0.0137 µM) and the MIC was determined as 0.0078 µg/mL (≈ 0.0274 µM). The “anti-Candida activity (ranking by backbone length X)” value with Candida is reported as “greatest anti-Candida activity”.

In the test on C. albicans DSY1024, `C/C=C\C#CC#C/C=C/C(O)CCCCCCCC(=O)O` (stereo not shown) [Compound 6] had a half-inhibitory concentration (IC50) of 11.3 µg/mL (≈ 39.2 µM) and a minimum inhibitory concentration (MIC) of 12.5 µg/mL (≈ 43.3 µM). Further, in the test with C. albicans SC5314, the “inhibition of growth of strain SC5314” value was “able to inhibit growth”, the IC50 stood at 8.5 µg/mL (≈ 29.5 µM) and the MIC is 12.5 µg/mL (≈ 43.3 µM).

For the compound `CN(C/C=C/C#CC(C)(C)C)Cc1cccc2ccccc12` [Terbinafine, reference compound], the MIC in the test with T. rubrum (Trichophyton rubrum, 96 h) was determined as 0.002 µg/mL (≈ 0.00686 µM); against T. mentagrophytes (Trichophyton mentagrophytes, 96 h), 0.004 µg/mL (≈ 0.0137 µM); in the test with T. tonsurans (Trichophyton tonsurans, 96 h) it was 0.015 µg/mL (≈ 0.0515 µM); against M. canis (Microsporum canis, 96 h), 0.015 µg/mL (≈ 0.0515 µM).

Regarding `COC(=O)CCCCCCC/C=C\C#CC#Cc1ccco1` [Compound 7], the half-inhibitory concentration (IC50) in the test with C. albicans DSY1024 was found to be 0.19 µg/mL (≈ 0.637 µM); in the test on C. albicans SC5314, 0.221 µg/mL (≈ 0.741 µM). Further, the MIC in the test with C. albicans DSY1024 came out at 0.25 µg/mL (≈ 0.838 µM); in the test with C. albicans SC5314, 0.25 µg/mL (≈ 0.838 µM); against T. rubrum (T. rubrum, four days at 35° C., visual inspection) it was 0.125 µg/mL (≈ 0.419 µM); in the test on T. mentagrophytes (T. mentagrophytes, four days at 35° C., visual inspection), 0.125 µg/mL (≈ 0.419 µM); against T. tonsurans (T. tonsurans, four days at 35° C., visual inspection) it was 0.125 µg/mL (≈ 0.419 µM); against M. canis (M. canis, four days at 35° C., visual inspection), 0.125 µg/mL (≈ 0.419 µM). Also, the “inhibition of growth of strain SC5314” value with C. albicans SC5314 was “able to inhibit growth”. In the test on Candida, the “anti-Candida activity (ranking by backbone length X)” value is listed as “greatest anti-Candida activity”.
